From ChEMBL document CHEMBL1149655, “Non-steroidal glucocorticoid agonists: the discovery of aryl pyrazoles as A-ring mimetics” (Bioorg Med Chem Lett, 2007)
“And” between values parts separate entries of the source, which are not always exact repeats. Equal values may be shown once.

Key:
Glucocorticoid receptor [1] = target: T1, Glucocorticoid receptor (Homo sapiens, UniProt P04150)
T1 sequence (P04150 whole entry): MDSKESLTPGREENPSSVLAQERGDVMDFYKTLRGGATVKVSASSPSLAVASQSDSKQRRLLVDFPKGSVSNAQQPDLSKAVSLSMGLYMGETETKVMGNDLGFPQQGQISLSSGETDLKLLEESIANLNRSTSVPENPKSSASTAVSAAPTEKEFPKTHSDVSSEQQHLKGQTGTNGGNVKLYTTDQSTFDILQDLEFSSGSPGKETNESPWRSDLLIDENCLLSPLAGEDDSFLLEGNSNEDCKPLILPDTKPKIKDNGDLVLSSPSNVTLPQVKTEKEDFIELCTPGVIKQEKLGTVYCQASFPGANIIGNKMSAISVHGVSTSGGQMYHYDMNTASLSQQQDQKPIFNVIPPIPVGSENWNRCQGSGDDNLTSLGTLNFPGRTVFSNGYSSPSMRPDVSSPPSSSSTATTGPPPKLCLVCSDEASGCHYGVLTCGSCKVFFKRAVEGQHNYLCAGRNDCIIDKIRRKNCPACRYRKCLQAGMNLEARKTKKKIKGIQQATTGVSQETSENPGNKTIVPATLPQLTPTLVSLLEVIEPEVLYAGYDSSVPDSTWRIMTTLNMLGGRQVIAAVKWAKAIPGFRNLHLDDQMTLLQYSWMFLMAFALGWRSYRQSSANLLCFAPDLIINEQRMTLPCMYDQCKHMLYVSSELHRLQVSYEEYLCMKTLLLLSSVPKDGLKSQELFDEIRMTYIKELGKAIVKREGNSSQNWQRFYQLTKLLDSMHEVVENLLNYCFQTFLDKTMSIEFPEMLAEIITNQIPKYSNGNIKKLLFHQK
Description: (§1) Binding affinity to glucocorticoid receptor

Progesterone receptor = target: T2, Progesterone receptor (Homo sapiens, UniProt P06401); test: Binding affinity to progesterone receptor
T2 sequence (P06401 whole entry): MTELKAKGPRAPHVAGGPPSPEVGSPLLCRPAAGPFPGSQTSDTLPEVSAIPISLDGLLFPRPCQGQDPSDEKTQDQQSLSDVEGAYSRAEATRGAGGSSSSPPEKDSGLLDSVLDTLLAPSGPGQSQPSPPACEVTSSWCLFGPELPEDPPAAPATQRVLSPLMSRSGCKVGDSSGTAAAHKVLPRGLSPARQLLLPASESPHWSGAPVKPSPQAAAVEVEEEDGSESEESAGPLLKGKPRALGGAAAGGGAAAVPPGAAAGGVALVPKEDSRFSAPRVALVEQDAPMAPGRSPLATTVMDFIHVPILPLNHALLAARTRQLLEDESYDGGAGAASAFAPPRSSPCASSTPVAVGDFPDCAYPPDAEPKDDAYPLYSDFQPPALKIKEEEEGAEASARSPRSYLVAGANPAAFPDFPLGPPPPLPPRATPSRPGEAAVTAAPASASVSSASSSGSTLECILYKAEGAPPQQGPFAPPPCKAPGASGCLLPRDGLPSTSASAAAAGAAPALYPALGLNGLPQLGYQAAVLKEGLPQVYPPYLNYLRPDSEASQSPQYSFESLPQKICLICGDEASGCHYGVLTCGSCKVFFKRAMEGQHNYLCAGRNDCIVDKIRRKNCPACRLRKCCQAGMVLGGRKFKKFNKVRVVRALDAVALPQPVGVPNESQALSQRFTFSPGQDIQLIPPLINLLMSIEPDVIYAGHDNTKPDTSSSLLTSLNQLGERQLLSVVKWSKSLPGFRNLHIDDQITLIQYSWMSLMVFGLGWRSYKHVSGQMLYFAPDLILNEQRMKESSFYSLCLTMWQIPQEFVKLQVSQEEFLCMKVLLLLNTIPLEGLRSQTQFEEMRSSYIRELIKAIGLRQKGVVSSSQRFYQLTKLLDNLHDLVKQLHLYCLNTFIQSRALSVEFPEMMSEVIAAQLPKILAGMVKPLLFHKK

Glucocorticoid receptor [2] = target: T1, Glucocorticoid receptor; remark: listed apart in the source
Androgen receptor = target: T3, Androgen receptor (Homo sapiens, UniProt P10275); test: Binding affinity to androgen receptor
T3 sequence (P10275 whole entry): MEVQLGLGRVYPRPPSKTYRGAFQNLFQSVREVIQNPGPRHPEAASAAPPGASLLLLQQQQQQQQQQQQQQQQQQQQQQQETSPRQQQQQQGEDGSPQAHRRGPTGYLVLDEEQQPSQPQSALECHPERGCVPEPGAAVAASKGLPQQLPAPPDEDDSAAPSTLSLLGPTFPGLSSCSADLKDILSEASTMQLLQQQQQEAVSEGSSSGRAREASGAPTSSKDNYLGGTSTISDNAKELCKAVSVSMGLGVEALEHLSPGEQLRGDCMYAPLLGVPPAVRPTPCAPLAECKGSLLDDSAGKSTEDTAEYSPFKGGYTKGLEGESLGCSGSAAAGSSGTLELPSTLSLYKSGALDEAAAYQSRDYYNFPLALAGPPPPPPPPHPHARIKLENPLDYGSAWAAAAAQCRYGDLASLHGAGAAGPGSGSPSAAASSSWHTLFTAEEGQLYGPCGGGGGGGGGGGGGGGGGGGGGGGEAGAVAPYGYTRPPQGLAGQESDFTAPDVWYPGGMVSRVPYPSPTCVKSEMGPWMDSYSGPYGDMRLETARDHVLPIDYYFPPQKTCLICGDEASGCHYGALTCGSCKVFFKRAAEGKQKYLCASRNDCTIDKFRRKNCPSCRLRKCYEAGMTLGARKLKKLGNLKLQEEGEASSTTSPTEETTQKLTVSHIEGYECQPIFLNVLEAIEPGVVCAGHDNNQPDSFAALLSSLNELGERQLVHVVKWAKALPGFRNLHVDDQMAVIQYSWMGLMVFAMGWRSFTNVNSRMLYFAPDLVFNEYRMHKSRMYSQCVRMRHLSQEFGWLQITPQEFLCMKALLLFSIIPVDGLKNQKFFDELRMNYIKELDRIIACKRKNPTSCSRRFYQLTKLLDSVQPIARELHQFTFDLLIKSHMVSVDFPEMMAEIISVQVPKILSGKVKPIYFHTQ

Glucocorticoid receptor [3] = target: T1, Glucocorticoid receptor; test: Agonist activity at glucocorticoid receptor in human A549 cells by MMTV transactivation assay; assay type: functional, cell-based
Glucocorticoid receptor [4] = target: T1, Glucocorticoid receptor; remark: listed apart in the source
Description: Agonist activity at glucocorticoid receptor in human A549 cells by NF-kappaB transrepression assay

Glucocorticoid receptor [5] = target: T1, Glucocorticoid receptor; remark: listed apart in the source
Description: as §1

Structure (SMILES) | IC50 (Glucocorticoid receptor [1]) | IC50 (Progesterone receptor) | IC50 (Glucocorticoid receptor [2]) | IC50 (Androgen receptor) | EC50 (Glucocorticoid receptor [3]) | IC50 (Glucocorticoid receptor [4]) | Log IC50 (Glucocorticoid receptor [5])
Cc1c(S(=O)(=O)NCC(O)(CC2(C)CCCc3ccccc32)C(F)(F)F)cnn1-c1ccccc1 (stereo in doubt; 17D2E1) | 51.3 nM |  |  |  |  |  | 
COc1ccc(F)cc1C(C)(C)C[C@](O)(CNC(=O)c1cnn(-c2ccc(F)cc2)c1N)C(F)(F)F | 6.76 nM and 5.5 nM | > 1000 nM | > 1000 nM | > 1000 nM |  |  | 
Cc1c(C(=O)NCC(O)(CC2(C)CCCc3ccccc32)C(F)(F)F)cnn1-c1ccccc1 (stereo in doubt; 18D1E1) | 9.33 nM |  | 933 nM |  | > 1000 nM | 49 nM | 
CCC1(CC(O)(CNC(=O)c2cnn(-c3ccccc3)c2N)C(F)(F)F)CCCc2ccccc21 (configuration not stated) | 7.41 nM |  |  |  | 5.62 nM | 1.66 nM | 
CCn1nc(C)c(Br)c1C(=O)NCC(O)(CC1(C)CCCc2ccccc21)C(F)(F)F (configuration not stated) | 40.7 nM |  |  |  |  | > 1000 nM | 
CCC1(CC(O)(CNC(=O)c2cnn(-c3ccc(F)cc3)c2N)C(F)(F)F)CCCc2ccccc21 (stereo in doubt; 21D1E1) | 20 nM |  |  |  | 7.76 nM | 3.63 nM | 
CCC1(CC(O)(CNC(=O)c2cnn(-c3ccc(F)cc3F)c2N)C(F)(F)F)CCCc2ccccc21 (stereo in doubt; 22D1E2) | 4.68 nM |  |  |  | 12.3 nM | 4.47 nM | 
CC1(CC(O)(CNC(=O)c2cnn(-c3ccccc3)c2N)C(F)(F)F)CCCc2ccccc21 (stereo in doubt; 19D1E1) | 5.75 nM |  |  |  | 182 nM | 17 nM | 
Nc1c(C(=O)NCC(O)(CC2(C3CCCC3)CCCc3ccccc32)C(F)(F)F)cnn1-c1ccc(F)cc1F (stereo in doubt; 23D1E1) | 9.55 nM |  | 275 nM |  | 95.5 nM | 8.51 nM | 
CCC1(CC(O)(CNC(=O)c2cnn(-c3ccc(F)cc3F)c2N)C(F)(F)F)CCCc2ccccc21 (stereo in doubt; 22D1E1) |  |  | > 1000 nM |  | 14.5 nM | 6.46 nM | -8.33
Cc1c(C(=O)NCC(O)(CC2(C)CCCc3ccccc32)C(F)(F)F)cnn1-c1ccccc1 (stereo in doubt; 18D1) | 7.59 nM |  | 603 nM |  |  | 83.2 nM | 
Cc1c(S(=O)(=O)NCC(O)(CC2(C)CCCc3ccccc32)C(F)(F)F)cnn1-c1ccccc1 (stereo in doubt; 17D1) | 158 nM |  |  |  |  |  | 
CC1(CC(O)(CNC(=O)c2cnn(-c3ccccc3)c2N)C(F)(F)F)CCCc2ccccc21 (stereo in doubt; 19D1E2) | 5.13 nM |  |  |  | 18.2 nM | 5.89 nM | 
Nc1c(C(=O)NCC(O)(CC2(C3CCCC3)CCCc3ccccc32)C(F)(F)F)cnn1-c1ccc(F)cc1F (stereo in doubt; 23D1E2) | 20.9 nM |  |  |  | 151 nM | 30.2 nM | 
Nc1c(C(=O)NCC(O)(CC2(c3cc(F)ccc3Cl)CCC2)C(F)(F)F)cnn1-c1ccccc1 (stereo in doubt; 24E2) | 4.79 nM |  |  |  | 17.4 nM | 13.2 nM | 
Nc1c(C(=O)NCC(O)(CC2(c3cc(F)ccc3Cl)CCC2)C(F)(F)F)cnn1-c1ccccc1 (stereo in doubt; 24E1) | 4.27 nM | > 1000 nM |  | > 1000 nM | 15.1 nM | 3.72 nM | 
Cc1c(S(=O)(=O)NCC(O)(CC2(C)CCCc3ccccc32)C(F)(F)F)cnn1-c1ccccc1 (stereo in doubt; 17D2) | 34.7 nM |  |  |  |  |  | 
Cc1c(S(=O)(=O)NCC(O)(CC2(C)CCCc3ccccc32)C(F)(F)F)cnn1-c1ccccc1 (stereo in doubt; 17D2E2) | 30.2 nM |  | 309 nM |  | > 1000 nM | > 1000 nM | 
CCC1(CC(O)(CNC(=O)c2cnn(-c3ccc(F)cc3)c2N)C(F)(F)F)CCCc2ccccc21 (stereo in doubt; 21D1E2) | 9.77 nM |  |  |  | 10.7 nM | 3.02 nM | 
